Measurements from US20250353841A1 (BIOGEN MA INC., priority 2022, published 2025).

Test system: mutant Huntington (HTT) protein
Test: HTT Mutant HTRF iPSC assay (mHTT protein lowering)
Format: cell-based
Conditions: human iPSC derived from a HTT patient with a poly-Q49 mutation

SMILES	IC50 [µM]
CN1CCC(c2cn3cc(-c4ccc5nn(C)cc5c4)cc(F)c3n2)CC1 [Compound 28, 5-(8-fluoro-2-(1-methylpiperidin-4-yl)imidazo[1,2-a]pyridin-6-yl)-2-methyl-2H-indazole]	1 to 9
Cn1nnc2ccc(-c3cc(F)c4nc(C5CCNCC5)cn4c3)cc21 [Compound 29, 6-(8-fluoro-2-(piperidin-4-yl)imidazo[1,2-a]pyridin-6-yl)-1-methyl-1H-benzo[d][1,2,3]triazole]	0.1 to 1
CCc1nc(C)cn2cc(-c3cc(F)c4nc(C5CCNCC5)cn4c3)cc12 [Compound 30, 6-(1-ethyl-3-methylpyrrolo[1,2-a]pyrazin-7-yl)-8-fluoro-2-(piperidin-4-yl)imidazo[1,2-a]pyridine]	< 0.1
Cc1cn2cc(-c3cc(F)c4nc(C5CCNCC5)cn4c3)cc2c(C)n1 [Compound 31, 6-(1,3-dimethylpyrrolo[1,2-a]pyrazin-7-yl)-8-fluoro-2-(piperidin-4-yl)imidazo[1,2-a]pyridine]	< 0.1
Cc1cn2cc(-c3cc(F)c4nc(C5CCNCC5)cn4c3)cc(Cl)c2n1 [Compound 32, 8-chloro-8′-fluoro-2-methyl-2′-(piperidin-4-yl)-6,6′-biimidazo[1,2-a]pyridine]	0.1 to 1
Fc1cc(-c2ccc3nscc3c2)cn2cc(C3CCNCC3)nc12 [Compound 33, 5-(8-fluoro-2-(piperidin-4-yl)imidazo[1,2-a]pyridin-6-yl)benzo[c]isothiazole]	1 to 9
Fc1cc(-c2ccn3nccc3c2)cn2cc(C3CCNCC3)nc12 [Compound 34, 8-fluoro-2-(piperidin-4-yl)-6-(pyrazolo[1,5-a]pyridin-5-yl)imidazo[1,2-a]pyridine]	1 to 9
Cc1csc2cc(-c3cc(F)c4nc(C5CCNCC5)cn4c3)cnc12 [Compound 35, 6-(8-fluoro-2-(piperidin-4-yl)imidazo[1,2-a]pyridin-6-yl)-3-methylthieno[3,2-b]pyridine]	1 to 9
Fc1cc(-c2ccc3nn(C(F)F)cc3c2)cn2cc(C3CCNCC3)nc12 [Compound 36, 2-(difluoromethyl)-5-(8-fluoro-2-(piperidin-4-yl)imidazo[1,2-a]pyridin-6-yl)-2H-indazole]	1 to 9
Cc1nc2ccc(-c3cc(F)c4nc(C5CCNCC5)cn4c3)cn2n1 [Compound 37, 6-(8-fluoro-2-(piperidin-4-yl)imidazo[1,2-a]pyridin-6-yl)-2-methyl-[1,2,4]triazolo[1,5-a]pyridine]	1 to 9
Cc1cc(-c2cc(F)c3nc(C4CCNCC4)cn3c2)ccc1C#N [Compound 38, 4-(8-fluoro-2-(piperidin-4-yl)imidazo[1,2-a]pyridin-6-yl)-2-methylbenzonitrile]	1 to 9
Fc1cc(-c2cc3ccc(Cl)cc3o2)cn2cc(C3CCNCC3)nc12 [Compound 39, 6-(6-chlorobenzofuran-2-yl)-8-fluoro-2-(piperidin-4-yl)imidazo[1,2-a]pyridine]	1 to 9
CCc1c[nH]c2ncc(-c3cc(F)c4nc(C5CCNCC5)cn4c3)cc12 [Compound 40, 6-(3-ethyl-1H-pyrrolo[2,3-b]pyridin-5-yl)-8-fluoro-2-(piperidin-4-yl)imidazo[1,2-a]pyridine]	1 to 9
CCOc1nccc2oc(-c3cc(F)c4nc(C5CCNCC5)cn4c3)cc12 [Compound 41, 4-ethoxy-2-(8-fluoro-2-(piperidin-4-yl)imidazo[1,2-a]pyridin-6-yl)furo[3,2-c]pyridine]	1 to 9
Cc1cn2cc(-c3cc(F)c4nc(C5CCNCC5)cn4c3)cc(C#N)c2n1 [Compound 42, 8′-fluoro-2-methyl-2′-(piperidin-4-yl)-[6,6′-biimidazo[1,2-a]pyridine]-8-carbonitrile]	1 to 9
Fc1cccc2sc(-c3cc(F)c4nc(C5CCNCC5)cn4c3)cc12 [Compound 43, 8-fluoro-6-(4-fluorobenzo[b]thiophen-2-yl)-2-(piperidin-4-yl)imidazo[1,2-a]pyridine]	1 to 9
Fc1cc(-c2ccc3ncsc3c2)cn2cc(C3CCNCC3)nc12 [Compound 44, 6-(8-fluoro-2-(piperidin-4-yl)imidazo[1,2-a]pyridin-6-yl)benzo[d]thiazole]	1 to 9
COCCCN1CCC(c2cn3cc(-c4cc(C)c5nc(C)cn5n4)cc(F)c3n2)CC1 [Compound 45, 6-(8-fluoro-2-(1-(3-methoxypropyl)piperidin-4-yl)imidazo[1,2-a]pyridin-6-yl)-2,8-dimethylimidazo[1,2-b]pyridazine]	< 0.1
COCCN1CCC(c2cn3cc(-c4cc(C)c5nc(C)cn5n4)cc(F)c3n2)CC1 [Compound 46, 6-[8-fluoro-2-[1-(2-methoxyethyl)-4-piperidyl]imidazo[1,2-a]pyridin-6-yl]-2,8-dimethyl-imidazo[1,2-b]pyridazine]	< 0.1
Cc1cn2nc(-c3cc(F)c4nc(C5CCN(C(C)C)CC5)cn4c3)cc(C)c2n1 [Compound 47, 6-(8-fluoro-2-(1-isopropylpiperidin-4-yl)imidazo[1,2-a]pyridin-6-yl)-2,8-dimethylimidazo[1,2-b]pyridazine]	< 0.1
Fc1cc(-c2cccc3nonc23)cn2cc(C3CCNCC3)nc12 [Compound 48, 4-(8-fluoro-2-(piperidin-4-yl)imidazo[1,2-a]pyridin-6-yl)benzo[c][1,2,5]oxadiazole]	1 to 9

SMILES	IC50 [µM]
Cc1nc2cc(-c3cc(F)c4nc(C5CCNCC5)cn4c3)ccc2[nH]1 [Compound 50, 5-(8-fluoro-2-(piperidin-4-yl)imidazo[1,2-a]pyridin-6-yl)-2-methyl-1H-benzo[d]imidazole]	1 to 9
Fc1cc(-c2ccc3nonc3c2)cn2cc(C3CCNCC3)nc12 [Compound 51, 5-(8-fluoro-2-(piperidin-4-yl)imidazo[1,2-a]pyridin-6-yl)benzo[c][1,2,5]oxadiazole]	1 to 9
Fc1cc(-c2cc(F)c3nc(C4CCNCC4)cn3c2)cc2[nH]ncc12 [Compound 52, 4-fluoro-6-(8-fluoro-2-(piperidin-4-yl)imidazo[1,2-a]pyridin-6-yl)-1H-indazole]	1 to 9
Cc1n[nH]c2ccc(-c3cc(F)c4nc(C5CCNCC5)cn4c3)cc12 [Compound 53, 5-(8-fluoro-2-(piperidin-4-yl)imidazo[1,2-a]pyridin-6-yl)-3-methyl-1H-indazole]	1 to 9
Fc1cc(-c2ccc3nsnc3c2)cn2cc(C3CCNCC3)nc12 [Compound 54, 5-(8-fluoro-2-(piperidin-4-yl)imidazo[1,2-a]pyridin-6-yl)benzo[c][1,2,5]thiadi azole]	1 to 9
CN1C(=O)Cc2ccc(-c3cc(F)c4nc(C5CCNCC5)cn4c3)cc21 [Compound 55, 6-(8-fluoro-2-(piperidin-4-yl)imidazo[1,2-a]pyridin-6-yl)-1-methylindolin-2-one]	1 to 9
N#Cc1cccc2[nH]c(-c3cc(F)c4nc(C5CCNCC5)cn4c3)cc12 [Compound 56, 2-(8-fluoro-2-(piperidin-4-yl)imidazo[1,2-a]pyridin-6-yl)-1H-indole-4-carbonitrile]	1 to 9
O=C1Cc2cc(-c3cc(F)c4nc(C5CCNCC5)cn4c3)cc(F)c2N1 [Compound 57, 7-fluoro-5-(8-fluoro-2-(piperidin-4-yl)imidazo[1,2-a]pyridin-6-yl)indolin-2-one]	1 to 9
O=c1[nH]ncc2ccc(-c3cc(F)c4nc(C5CCNCC5)cn4c3)cc12 [Compound 58, 7-(8-fluoro-2-(piperidin-4-yl)imidazo[1,2-a]pyridin-6-yl)phthalazin-1(2H)-one]	1 to 9
Fc1cc(-c2ccc3[nH]ncc3c2)cn2cc(C3CCNCC3)nc12 [Compound 59, 5-(8-fluoro-2-(piperidin-4-yl)imidazo[1,2-a]pyridin-6-yl)-1H-indazole]	1 to 9
Cc1cn2nc(-c3cc(F)c4nc(C5CCNC(C)C5)cn4c3)cc(C)c2n1 (stereo not drawn) [Compound 60, 6-(8-fluoro-2-(2-methylpiperidin-4-yl)imidazo[1,2-a]pyridin-6-yl)-2,8-dimethylimidazo[1,2-b]pyridazine]	< 0.1
Cc1cn2nc(-c3cc(F)c4nc(C5CCNC(C)C5)cn4c3)ccc2n1 (stereo not drawn) [Compound 61, 6-(8-fluoro-2-(2-methylpiperidin-4-yl)imidazo[1,2-a]pyridin-6-yl)-2-methylimidazo[1,2-b]pyridazine]	< 0.1
Cc1cn2nc(-c3cc(F)c4nc(C5CCNC(C)(C)C5)cn4c3)ccc2n1 (stereo not drawn) [Compound 62, 6-(2-(2,2-dimethylpiperidin-4-yl)-8-fluoroimidazo[1,2-a]pyridin-6-yl)-2-methylimidazo[1,2-b]pyridazine]	< 0.1
Cn1cc2cc(-c3cc(F)c4nc(C5CCNC(C)(C)C5)cn4c3)cc(F)c2n1 (stereo not drawn) [Compound 63, 5-(2-(2,2-dimethylpiperidin-4-yl)-8-fluoroimidazo[1,2-a]pyridin-6-yl)-7-fluoro-2-methyl-2H-indazole]	1 to 9
Cc1cn2nc(-c3cc(F)c4nc(C5CNC5)cn4c3)cc(C)c2n1 [Compound 64]	1 to 9
Cn1cc2cc(-c3cc(F)c4nc(C5CCNC5)cn4c3)ccc2n1 (stereo not drawn) [Compound 65, 5-(8-fluoro-2-(pyrrolidin-3-yl)imidazo[1,2-a]pyridin-6-yl)-2-methyl-2H-indazole]	1 to 9
CN1CC2(c3cn4cc(-c5cc(F)c6nn(C)cc6c5)cc(F)c4n3)CC1C2 [Compound 66, 7-fluoro-5-[8-fluoro-2-(2-methyl-2-azabicyclo[2.1.1]hexan-4-yl)imidazo[1,2-a]pyridin-6-yl]-2-methyl-indazole]	1 to 9
Cn1cc2cc(-c3cc(F)c4nc(C56CNC(C5)C6)cn4c3)cc(F)c2n1 [Compound 67]	1 to 9
Cn1cc2cc(-c3cc(F)c4nc(C56CC(N)(CO5)C6)cn4c3)cc(F)c2n1 [Compound 68]	1 to 9
Cc1cn2nc(-c3cc(F)c4nc(C5CCN(C6CCC6)CC5)cn4c3)cc(C)c2n1 [Compound 69, 6-[2-(1-cyclobutyl-4-piperidyl)-8-fluoro-imidazo[1,2-a]pyridin-6-yl]-2,8-dimethyl-imidazo[1,2-b]pyridazine]	< 0.1
Cn1cc2cc(-c3cc(F)c4nc(C56CCC(N)(C5)C6)cn4c3)cc(F)c2n1 [Compound 72, 4-(8-fluoro-6-(7-fluoro-2-methyl-2H-indazol-5-yl)imidazo[1,2-a]pyridin-2-yl)bicyclo[2.1.1]hexan-1-amine]	1 to 9
